Assay results published in ChEMBL document CHEMBL5727031, “Metabotropic glutamate receptor negative allosteric modulators (NAMS) and uses thereof” (2018).

How the values were obtained:
[1] = (§1) In Vitro GIRK Thallium Flux Assay (2.5 minutes): Human Embryonic Kidney (HEK-293) cell lines co-expressing rat mGlu receptors 2, 3, 4, 6, 7 or 8 and G protein-coupled inwardly-rectifying potassium (GIRK) channels_ENREF_54 were grown in Growth Media containing 45% DMEM, 45% F-12, 10% FBS, 20 mM HEPES, 2 mM L-glutamine, antibiotic/antimycotic, non-essential amino acids, 700 μg/ml G418, and 0.6 μg/ml puromycin at 37° C. in the presence of 5% CO2. All cell culture reagents were purchased from Invitrogen Corp. (Carlsbad, Calif.) unless otherwise noted. Compound activity at the group II (mGlu2 and mGlu3) mGlus was assessed using thallium flux through GIRK channels. Briefly, cells were plated into 384-well, black-walled, clear-bottomed poly-D-lysine-coated plates at a density of 15,000 cells/20 μL/well in DMEM containing 10% dialyzed FBS, 20 mM HEPES, and 100 units/mL penicillin/streptomycin (assay media). Plated cells were incubated overnight at 37° C. in the presence of 5% CO2. The following day, the medium was exchanged from the cells to assay buffer [Hanks' balanced salt solution (Invitrogen) containing 20 mM HEPES, pH 7.3] using an ELX405 microplate washer (BioTek), leaving 20 μL/well, followed by the addition of 20 μL/well FluoZin2-AM (330 nM final concentration) indicator dye (Invitrogen; prepared as a stock in DMSO and mixed in a 1:1 ratio with Pluronic acid F-127) in assay buffer. Cells were incubated for 1 h at room temperature, and the dye exchanged to assay buffer using an ELX405, leaving 20 μL/well. Test compounds were diluted to 2 times their final desired concentration in assay buffer (0.3% DMSO final concentration). Agonists were diluted in thallium buffer [125 mM sodium bicarbonate (added fresh the morning of the experiment), 1 mM magnesium sulfate, 1.8 mM calcium sulfate, 5 mM glucose, 12 mM thallium sulfate, and 10 mM HEPES, pH 7.3] at 5 times the final concentration to be assayed. Cell plates and compound plates were loaded onto a kinetic imaging plate reader (FDSS 6000 or 7000; Hamamatsu Corporation, Bridgewater, N.J.). Appropriate baseline readings were taken (10 images at 1 Hz; excitation, 470±20 nm; emission, 540±30 nm) and test compounds were added in a 20 μL volume and incubated for either 2.5 min or 60 min as indicated before the addition of 10 μL of thallium buffer with or without agonist. After the addition of agonist, data were collected for approximately an additional 2.5 min. Data were analyzed using Excel (Microsoft Corp, Redmond, Wash.). The slope of the fluorescence increase beginning 5 s after thallium/agonist addition and ending 15 s after thallium/agonist addition was calculated, corrected to vehicle and maximal agonist control slope values, and plotted in using either XLfit (ID Business Solutions Ltd) or Prism software (GraphPad Software, San Diego, Calif.) to generate concentration-response curves. Potencies were calculated from fits using a four-point parameter logistic equation. For concentration-response curve experiments, compounds were serially diluted 1:3 into 10 point concentration response curves and were transferred to daughter plates using an Echo acoustic plate reformatter (Labcyte, Sunnyvale, Calif.). Test compounds were applied and followed by EC80 concentrations of glutamate.; conditions: HEK293, 2.5 min
[2] = as §1, with “Assay (60” for “Assay (2.5”, “additional 60” for “additional 2.5”; conditions: HEK293, 1 h
[3] = as §1; conditions: HEK293, 2.5 min; remark: listed apart in the source
[4] = as §1, with “Assay (60” for “Assay (2.5”, “additional 60” for “additional 2.5”; conditions: HEK293, 1 h; remark: listed apart in the source

SMILES	EC50 [1] [µM]	EC50 [2] [µM]	EC50 [3] [µM]	EC50 [4] [nM]
COc1ccc(-n2nc(-c3cccc(-c4ccccc4)c3)nc2-c2ccccc2)cc1	> 10	6.58	2.96	460
Fc1ccc(-c2cccc(-c3csc(-c4ccccc4)n3)c2)cc1	0.33	0.48	1.21	> 10000
Clc1ccc(-c2cccc(-c3csc(-c4ccccc4)n3)c2)cc1	0.57	0.8	0.79	1330
Cn1nc(-c2cccc(-c3ccccc3)c2)nc1-c1ccccc1	0.59	1.48	> 10	> 10000
c1ccc(-c2cccc(-c3nc(-c4ccoc4)n(-c4ccccc4)n3)c2)cc1	> 10	3.78	> 10	2630
c1ccc(-c2cccc(-c3n[nH]c(-c4ccccc4)n3)c2)cc1	> 10	> 30	> 30	> 30000
Fc1ccc(-c2ccc(-c3csc(-c4ccccc4)n3)s2)cc1	> 10	> 10	> 10	> 10000
COc1ccccc1-c1cccc(-c2csc(-c3ccccc3)n2)c1	1.81	1.35	> 10	> 10000
C(=C\c1nc(-c2cccc(-c3ccccc3)c2)cs1)/c1ccccc1	3.47	> 10	> 10	> 10000
c1ccc(Cn2nc(-c3cccc(-c4ccccc4)c3)nc2-c2ccccc2)cc1	> 10	2.71	3.9	1400
Fc1cccc(-n2nc(-c3cccc(-c4ccccc4)c3)nc2-c2ccccc2)c1	3.22	> 10	> 10	1160
Fc1ccccc1-c1cccc(-c2nc(-c3ccccc3)n(-c3ccccc3)n2)c1	> 10	> 10	4.45	2290
Fc1ccc(-c2csc(-c3ccccc3)n2)cc1	> 10	> 30	> 30	> 30000
Cc1cc(NC(=O)OC(C)(C)C)c(NC(=O)CC(=O)c2cccc(OCc3ccccc3)c2)cc1C(F)(F)F	> 10	2.36	2.93	740
Fc1cccc(-c2cccc(-c3nc(-c4ccccc4)n(-c4ccccc4)n3)c2)c1	> 10	> 10	3.11	1510
c1ccc(-c2cccc(-c3csc(-c4cccc5ccccc45)n3)c2)cc1	> 10	> 10	> 30	> 30000
Fc1ccc(-c2cccc(-c3csc(-c4ccco4)n3)c2)cc1	2.4	> 10	> 10	> 30000
O=[N+]([O-])c1cccc(-c2cccc(-c3csc(-c4ccccc4)n3)c2)c1	> 10	> 10	> 10	> 30000
Fc1cccc(-c2cccc(-c3csc(-c4ccccc4)n3)c2)c1	0.64	0.35	> 10	> 30000
Fc1cccc(-c2cccc(-c3nsc(-c4ccoc4)n3)c2)c1	0.17	0.11	3.43	1230
FC(F)(F)c1ccc(-c2nc(-c3cccc(-c4ccccc4)c3)nn2-c2ccccc2)cn1	> 10	> 10	5.56	850
CC(C)n1nc(-c2cccc(-c3ccccc3)c2)nc1-c1ccccc1	> 10	> 30	> 10	> 10000
Fc1ccccc1-c1cccc(-c2csc(-c3ccccc3)n2)c1	1.59	3.4	> 30	> 30000
Clc1cccc(-c2cccc(-c3csc(-c4ccccc4)n3)c2)c1	> 10	> 10	> 10	> 10000
c1ccc(-c2cccc(-c3coc(-c4ccccc4)n3)c2)cc1	> 10	> 10	> 30	> 30000
